Measured values reported in publication PMC12209991 (Clinical Pharmacology in Drug Development, 2025).
Like-named read-outs stand apart in the source and are kept apart here.

Assays:
CYP3A4 [1] = system: CYP3A4
CYP3A4 [2] = assay: clinical; conditions: human, in vivo, po; for AUC(0-inf): AUCinf; for AUC(0-inf) / AUC(0-t) / Cmax: N=12; for AUC(0-t): AUClast
[3] = midazolam with RBN-3143 / without RBN-3143 (300 mg BID for 14 days)
[4] = midazolam with RBN-3143 / without RBN-3143 (300 mg BID for 14 days), listed as midazolam
[5] = 2 mg, GLSM, midazolam 2 mg single oral dose without RBN-3143 (day 1)
[6] = 2 mg, geometric mean (Geo CV%), midazolam 2 mg single oral dose without RBN-3143 (day 1)
[7] = 2 mg, mean (SD), midazolam 2 mg single oral dose without RBN-3143 (day 1)
[8] = GLSM, midazolam 2 mg single oral dose with RBN-3143 300 mg BID at steady state (day 16)
[9] = geometric mean (Geo CV%), midazolam 2 mg single oral dose with RBN-3143 300 mg BID at steady state (day 16)
[10] = mean (SD), midazolam 2 mg single oral dose with RBN-3143 300 mg BID at steady state (day 16)

Cc1ncc2n1-c1ccc(Cl)cc1C(c1ccccc1F)=NC2 [Midazolam, midazolam]
subjects with decreased exposure to oral midazolam (CYP3A4 [1]; after RBN-3143 300 mg BID to steady-state): 9/12 | increase of midazolam Cmax in 1 subject against the trend (CYP3A4 [1]; in the presence of RBN-3143): 3 fold | subjects showing increased midazolam AUCinf (CYP3A4 [1]; in the presence of RBN-3143): 3 subjects out of 12 | subjects showing increased midazolam Cmax (CYP3A4 [1]; in the presence of RBN-3143): 2 subjects out of 12 | AUCinf GLSM ratio (90% CI) (CYP3A4 [1]; [3]): … … 0.88 (0.76, 1.01) | AUClast GLSM ratio (90% CI) (CYP3A4 [1]; [3]): … … 0.87 (0.75, 1.01) | Cmax GLSM ratio (90% CI) (CYP3A4 [1]; [3]): … … 0.92 (0.74, 1.16) | AUCinf GLSM ratio (90% CI) (CYP3A4 [1]; [4]): 0.88 | Cmax GLSM ratio (90% CI) (CYP3A4 [1]; [4]): 0.92 | AUC(0-inf) (CYP3A4 [2]; [5]): 20.8 ng·h/mL | AUC(0-inf) (CYP3A4 [2]; [6]): 20.8 ng·h/mL | AUC(0-inf) (CYP3A4 [2]; [7]): 22.2 ng·h/mL | AUC(0-t) (CYP3A4 [2]; [5]): 19.8 ng·h/mL | AUC(0-t) (CYP3A4 [2]; [6]): 19.8 ng·h/mL | AUC(0-t) (CYP3A4 [2]; [7]): 21.2 ng·h/mL | Cmax (CYP3A4 [2]; [5]): 9.88 ng/mL | Cmax (CYP3A4 [2]; [6]): 9.87 ng/mL | Cmax (CYP3A4 [2]; [7]): 10.3 ng/mL | half-life (CYP3A4 [2]; 2 mg, t1/2, geometric mean (Geo CV%), midazolam 2 mg single oral dose without RBN-3143 (day 1)): 3.05 h | half-life (CYP3A4 [2]; 2 mg, t1/2, mean (SD), midazolam 2 mg single oral dose without RBN-3143 (day 1)): 3.29 h | AUC(0-inf) (CYP3A4 [2]; [8]): 18.3 ng·h/mL | AUC(0-inf) (CYP3A4 [2]; [9]): 18.3 ng·h/mL | AUC(0-inf) (CYP3A4 [2]; [10]): 19.9 ng·h/mL | AUC(0-t) (CYP3A4 [2]; [8]): 17.2 ng·h/mL | AUC(0-t) (CYP3A4 [2]; [9]): 17.2 ng·h/mL | AUC(0-t) (CYP3A4 [2]; [10]): 18.6 ng·h/mL | Cmax (CYP3A4 [2]; [8]): 9.11 ng/mL | Cmax (CYP3A4 [2]; [9]): 9.11 ng/mL | Cmax (CYP3A4 [2]; [10]): 9.76 ng/mL | half-life (CYP3A4 [2]; t1/2, geometric mean (Geo CV%), midazolam 2 mg single oral dose with RBN-3143 300 mg BID at steady state (day 16)): 3.09 h | half-life (CYP3A4 [2]; t1/2, mean (SD), midazolam 2 mg single oral dose with RBN-3143 300 mg BID at steady state (day 16)): 3.49 h
